# Laboratory results published in ChEMBL document CHEMBL1201861, “Genomics of Drug Sensitity in Cancer screening data, Wellcome Trust Sanger Institute”.
# pIC50: −log10 of the molar value.
# What was measured:
# Assay in all cases: cells
# Assay type in all cases: functional, cell-based
# Details in all cases: Homo sapiens
# D-502MG = test system: D-502MG
# Description: SANGER: Inhibition of human D-502MG cell growth in a cell viability assay.
# DJM-1 = test system: DJM-1;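 further: growth inhibition of human DJM-1 cells, read out by a cell viability assay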
# Description: SANGER: Inhibition of human DJM-1 cell growth in a cell viability assay.
# EKVX = test system: EKVX;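 further: growth inhibition of human EKVX cells, read out with a cell viability assay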
# Description: SANGER: Inhibition of human EKVX cell growth in a cell viability assay.
# ES4 = test system: ES4;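 further: growth inhibition of human ES4 cells, read out by a cell viability assay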
# Description: SANGER: Inhibition of human ES4 cell growth in a cell viability assay.
# ES5 = test system: ES5;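 further: growth inhibition of human ES5 cells, read out by a cell viability assay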
# Description: SANGER: Inhibition of human ES5 cell growth in a cell viability assay.
# ES6 = test system: ES6;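 further: growth inhibition of human ES6 cells, read out with a cell viability assay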
# Description: SANGER: Inhibition of human ES6 cell growth in a cell viability assay.
# EW-13 = test system: EW-13;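 further: growth inhibition of EW-13 cells, read out with a cell viability assay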
# Description: SANGER: Inhibition of human EW-13 cell growth in a cell viability assay.
# GI-1 = test system: GI-1;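 further: growth inhibition of human GI-1 cells, measured with a cell viability readout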
# Description: SANGER: Inhibition of human GI-1 cell growth in a cell viability assay.
# HAL-01 = test system: HAL-01;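 further: growth inhibition of human HAL-01 cells, read out with a cell viability assay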
# Description: SANGER: Inhibition of human HAL-01 cell growth in a cell viability assay.
# HCC1187 = test system: HCC1187;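 further: growth inhibition of HCC1187 cells, read out with a cell viability assay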
# Description: SANGER: Inhibition of human HCC1187 cell growth in a cell viability assay.
# HCC2218 = test system: HCC2218;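 further: cell viability assay read-out, with IC50 given as the concentration that inhibits growth of the cell line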
# Description: SANGER: Inhibition of human HCC2218 cell growth in a cell viability assay.
# HDLM-2 = test system: HDLM-2;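 further: cell viability assay measuring suppression of HDLM-2 proliferation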
# Description: SANGER: Inhibition of human HDLM-2 cell growth in a cell viability assay.
# HOP-62 = test system: HOP-62;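 further: cell growth inhibition determined with a viability assay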
# Description: SANGER: Inhibition of human HOP-62 cell growth in a cell viability assay.
# JVM-2 = test system: JVM-2;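 further: growth inhibition of JVM-2 cells determined by a cell viability assay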
# Description: SANGER: Inhibition of human JVM-2 cell growth in a cell viability assay.
# JVM-3 = test system: JVM-3;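 further: growth inhibition of human JVM-3 cells, read out with a cell viability assay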
# Description: SANGER: Inhibition of human JVM-3 cell growth in a cell viability assay.
# KARPAS-299 = test system: KARPAS-299
# Description: SANGER: Inhibition of human KARPAS-299 cell growth in a cell viability assay.
# KARPAS-45 = test system: KARPAS-45;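 further: inhibition of cell line growth, read out through a viability assay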
# Description: SANGER: Inhibition of human KARPAS-45 cell growth in a cell viability assay.
# KG-1 = test system: KG-1;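 further: growth inhibition of KG-1 cells, read out by a cell viability assay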
# Description: SANGER: Inhibition of human KG-1 cell growth in a cell viability assay.
# KM-H2 = test system: KM-H2;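 further: growth inhibition of KM-H2 cells, read out by a cell viability assay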
# Description: SANGER: Inhibition of human KM-H2 cell growth in a cell viability assay.
# KNS-81-FD = test system: KNS-81-FD;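 further: growth inhibition of KNS-81-FD cells, read out with a cell viability assay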
# Description: SANGER: Inhibition of human KNS-81-FD cell growth in a cell viability assay.
# LB1047-RCC = test system: LB1047-RCC;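 further: inhibition of cell growth, determined with a cell viability assay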
# Description: SANGER: Inhibition of human LB1047-RCC cell growth in a cell viability assay.
# LB2518-MEL = test system: LB2518-MEL;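 further: growth inhibition of human LB2518-MEL cells, measured with a cell viability assay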
# Description: SANGER: Inhibition of human LB2518-MEL cell growth in a cell viability assay.
# LC-1F = test system: LC-1F;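 further: growth inhibition of human LC-1F cells, read out with a cell viability assay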
# Description: SANGER: Inhibition of human LC-1F cell growth in a cell viability assay.
# MC-CAR = test system: MC-CAR;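 further: growth inhibition of the human MC-CAR cell line, read out by a cell viability assay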
# Description: SANGER: Inhibition of human MC-CAR cell growth in a cell viability assay.
# MDA-MB-134-VI = test system: MDA-MB-134-VI
# Description: SANGER: Inhibition of human MDA-MB-134-VI cell growth in a cell viability assay.
# MHH-PREB-1 = test system: MHH-PREB-1;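 further: cell viability assay measuring inhibition of proliferation of human MHH-PREB-1 cells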
# Description: SANGER: Inhibition of human MHH-PREB-1 cell growth in a cell viability assay.
# MMAC-SF = test system: MMAC-SF;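 further: growth inhibition of human MMAC-SF cells, read out with a cell viability assay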
# Description: SANGER: Inhibition of human MMAC-SF cell growth in a cell viability assay.
# MOLT-16 = test system: MOLT-16;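 further: growth inhibition of human MOLT-16 cells, read out with a cell viability assay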
# Description: SANGER: Inhibition of human MOLT-16 cell growth in a cell viability assay.
# NB13 = test system: NB13;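 further: cell viability readout measuring growth inhibition of human NB13 cells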
# Description: SANGER: Inhibition of human NB13 cell growth in a cell viability assay.
# NB69 = test system: NB69;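 further: growth inhibition of NB69 cells, determined by a cell viability assay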
# Description: SANGER: Inhibition of human NB69 cell growth in a cell viability assay.
# NCI-H1304 = test system: NCI-H1304;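 further: growth inhibition of the cancer cell line, measured in a cell viability assay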
# Description: SANGER: Inhibition of human NCI-H1304 cell growth in a cell viability assay.
# NCI-H1395 = test system: NCI-H1395;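 further: cell viability assay read-out quantifying reduced proliferation of human NCI-H1395 cells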
# Description: SANGER: Inhibition of human NCI-H1395 cell growth in a cell viability assay.
# NCI-H1581 = test system: NCI-H1581;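 further: cell growth inhibition read out by a viability assay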
# Description: SANGER: Inhibition of human NCI-H1581 cell growth in a cell viability assay.
# NCI-H1650 = test system: NCI-H1650;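 further: growth inhibition of human NCI-H1650 cells measured by a cell viability assay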
# Description: SANGER: Inhibition of human NCI-H1650 cell growth in a cell viability assay.
# NCI-H1838 = test system: NCI-H1838;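 further: growth inhibition of NCI-H1838 cells, determined with a cell viability readout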
# Description: SANGER: Inhibition of human NCI-H1838 cell growth in a cell viability assay.
# NCI-H2196 = test system: NCI-H2196;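 further: cell viability assay used as the readout of growth inhibition in NCI-H2196 cells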
# Description: SANGER: Inhibition of human NCI-H2196 cell growth in a cell viability assay.
# OMC-1 = test system: OMC-1;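 further: growth inhibition of the OMC-1 cell line, measured by a cell viability assay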
# Description: SANGER: Inhibition of human OMC-1 cell growth in a cell viability assay.
# RCC10RGB = test system: RCC10RGB;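 further: growth inhibition of human RCC10RGB cells, read out by a cell viability assay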
# Description: SANGER: Inhibition of human RCC10RGB cell growth in a cell viability assay.
# RPMI-8226 = test system: RPMI-8226
# Description: SANGER: Inhibition of human RPMI-8226 cell growth in a cell viability assay.
# RPMI-8866 = test system: RPMI-8866
# Description: SANGER: Inhibition of human RPMI-8866 cell growth in a cell viability assay.
# Ramos-2G6-4C10 = test system: Ramos-2G6-4C10;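 further: growth inhibition of the cell line, measured by a cell viability read-out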
# Description: SANGER: Inhibition of human Ramos-2G6-4C10 cell growth in a cell viability assay.
# SCC-3 = test system: SCC-3;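 further: cell viability assay measuring inhibition of SCC-3 cell growth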
# Description: SANGER: Inhibition of human SCC-3 cell growth in a cell viability assay.
# SCH = test system: SCH;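 further: growth inhibition of human SCH cells, read out in a cell viability assay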
# Description: SANGER: Inhibition of human SCH cell growth in a cell viability assay.
# SF-539 = test system: SF-539;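 further: Read-out is a cell viability assay, with IC50 reflecting inhibition of cell growth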
# Description: SANGER: Inhibition of human SF539 cell growth in a cell viability assay.
# SK-LMS-1 = test system: SK-LMS-1;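 further: growth inhibition of human SK-LMS-1 cells, read out with a cell viability assay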
# Description: SANGER: Inhibition of human SK-LMS-1 cell growth in a cell viability assay.
# SK-MEL-1 = test system: SK-MEL-1;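 further: growth inhibition of human SK-MEL-1 cells, read out by a cell viability assay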
# Description: SANGER: Inhibition of human SK-MEL-1 cell growth in a cell viability assay.
# SK-N-DZ = test system: SK-N-DZ;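 further: growth inhibition of the cancer cell line, read out through a viability assay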
# Description: SANGER: Inhibition of human SK-N-DZ cell growth in a cell viability assay.
# SK-NEP-1 = test system: SK-NEP-1;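 further: growth inhibition of human SK-NEP-1 cells, read out by a cell viability assay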
# Description: SANGER: Inhibition of human SK-NEP-1 cell growth in a cell viability assay.
# SK-UT-1 = test system: SK-UT-1;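 further: growth inhibition of SK-UT-1 cells, measured by a cell viability assay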
# Description: SANGER: Inhibition of human SK-UT-1 cell growth in a cell viability assay.
# 697 = test system: 697
# Description: SANGER: Inhibition of human 697 cell growth in a cell viability assay.
# A4-Fuk = test system: A4-Fuk;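 further: growth inhibition of A4-Fuk cells, read out by a cell viability assay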
# Description: SANGER: Inhibition of human A4-Fuk cell growth in a cell viability assay.
# ATN-1 = test system: ATN-1;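 further: growth inhibition of human ATN-1 cells, read out with a cell viability assay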
# Description: SANGER: Inhibition of human ATN-1 cell growth in a cell viability assay.
# BB65-RCC = test system: BB65-RCC;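 further: growth inhibition of the cell line, measured with a cell viability assay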
# Description: SANGER: Inhibition of human BB65-RCC cell growth in a cell viability assay.
# BV-173 = test system: BV-173
# Description: SANGER: Inhibition of human BV-173 cell growth in a cell viability assay.
# Becker = test system: Becker
# Description: SANGER: Inhibition of human Becker cell growth in a cell viability assay.
# TE-8 = test system: TE-8
# Description: SANGER: Inhibition of human TE-8 cell growth in a cell viability assay.
# TGBC1TKB = test system: TGBC1TKB
# Description: SANGER: Inhibition of human TGBC1TKB cell growth in a cell viability assay.
# A498 = test system: A498
# Description: SANGER: Inhibition of human A498 cell growth in a cell viability assay.
compound,measurement,setting,value
Cc1ccc(NC(=O)c2cccc(C(C)(C)C#N)c2)cc1Nc1ccc2ncn(C)c(=O)c2c1,pIC50,D-502MG,5.65
same,pIC50,DJM-1,< 5.40
same,pIC50,EKVX,< 5.40
same,pIC50,ES4,< 5.40
same,pIC50,ES5,< 5.40
same,pIC50,ES6,< 5.40
same,pIC50,EW-13,< 5.40
same,pIC50,GI-1,< 5.40
same,pIC50,HAL-01,< 5.40
same,pIC50,HCC1187,< 5.40
same,pIC50,HCC2218,< 5.40
same,pIC50,HDLM-2,< 5.40
same,pIC50,HOP-62,< 5.40
same,pIC50,JVM-2,< 5.40
same,pIC50,JVM-3,< 5.40
same,pIC50,KARPAS-299,< 5.40
same,pIC50,KARPAS-45,< 5.40
same,pIC50,KG-1,5.42
same,pIC50,KM-H2,< 5.40
same,pIC50,KNS-81-FD,< 5.40
same,pIC50,LB1047-RCC,< 5.40
same,pIC50,LB2518-MEL,8.32
same,pIC50,LC-1F,5.48
same,pIC50,MC-CAR,< 5.40
same,pIC50,MDA-MB-134-VI,< 5.40
same,pIC50,MHH-PREB-1,< 5.40
same,pIC50,MMAC-SF,7.40
same,pIC50,MOLT-16,< 5.40
same,pIC50,NB13,< 5.40
same,pIC50,NB69,6.72
same,pIC50,NCI-H1304,< 5.40
same,pIC50,NCI-H1395,< 5.40
same,pIC50,NCI-H1581,< 5.40
same,pIC50,NCI-H1650,< 5.40
same,pIC50,NCI-H1838,< 5.40
same,pIC50,NCI-H2196,< 5.40
same,pIC50,OMC-1,< 5.40
same,pIC50,RCC10RGB,< 5.40
same,pIC50,RPMI-8226,5.61
same,pIC50,RPMI-8866,< 5.40
same,pIC50,Ramos-2G6-4C10,< 5.40
same,pIC50,SCC-3,< 5.40
same,pIC50,SCH,< 5.40
same,pIC50,SF-539,< 5.40
same,pIC50,SK-LMS-1,< 5.40
same,pIC50,SK-MEL-1,6.42
same,pIC50,SK-N-DZ,< 5.40
same,pIC50,SK-NEP-1,6.33
same,pIC50,SK-UT-1,< 5.40
same,pIC50,697,6.44
same,pIC50,A4-Fuk,6.32
same,pIC50,ATN-1,< 5.40
same,pIC50,BB65-RCC,< 5.40
same,pIC50,BV-173,6.16
same,pIC50,Becker,< 5.40
same,pIC50,TE-8,< 5.40
same,pIC50,TGBC1TKB,< 5.40
CCn1c(-c2nonc2N)nc2cnc(Oc3cccc(NC(=O)c4ccc(OCCN5CCOCC5)cc4)c3)cc21 [GSK-269962A],pIC50,D-502MG,< 5.60
same,pIC50,DJM-1,< 5.60
same,pIC50,EKVX,< 5.60
same,pIC50,ES4,< 5.60
same,pIC50,ES5,< 5.60
same,pIC50,ES6,6.61
same,pIC50,EW-13,< 5.60
same,pIC50,GI-1,8.28
same,pIC50,HAL-01,< 5.60
same,pIC50,HCC1187,< 5.60
same,pIC50,HCC2218,< 5.60
same,pIC50,HDLM-2,< 5.60
same,pIC50,HOP-62,< 5.60
same,pIC50,JVM-2,< 5.60
same,pIC50,JVM-3,< 5.60
same,pIC50,KARPAS-299,< 5.60
same,pIC50,KARPAS-45,< 5.60
same,pIC50,KG-1,< 5.60
same,pIC50,KM-H2,< 5.60
same,pIC50,KNS-81-FD,< 5.60
same,pIC50,LB1047-RCC,< 5.60
same,pIC50,LB2518-MEL,5.77
same,pIC50,LC-1F,< 5.60
same,pIC50,MC-CAR,< 5.60
same,pIC50,MDA-MB-134-VI,< 5.60
same,pIC50,MHH-PREB-1,< 5.60
same,pIC50,MMAC-SF,< 5.60
same,pIC50,MOLT-16,< 5.60
same,pIC50,NB13,5.64
same,pIC50,NB69,< 5.60
same,pIC50,NCI-H1304,< 5.60
same,pIC50,NCI-H1395,< 5.60
same,pIC50,NCI-H1581,< 5.60
same,pIC50,NCI-H1650,< 5.60
same,pIC50,NCI-H1838,< 5.60
same,pIC50,NCI-H2196,< 5.60
same,pIC50,OMC-1,< 5.60
same,pIC50,RCC10RGB,< 5.60
same,pIC50,RPMI-8226,< 5.60
same,pIC50,RPMI-8866,< 5.60
same,pIC50,Ramos-2G6-4C10,5.87
same,pIC50,SCC-3,< 5.60
same,pIC50,SCH,< 5.60
same,pIC50,SF-539,5.89
same,pIC50,SK-LMS-1,< 5.60
same,pIC50,SK-MEL-1,< 5.60
same,pIC50,SK-N-DZ,< 5.60
same,pIC50,SK-NEP-1,< 5.60
same,pIC50,SK-UT-1,< 5.60
same,pIC50,697,6.52
same,pIC50,A4-Fuk,< 5.60
same,pIC50,A498,< 5.60
same,pIC50,ATN-1,< 5.60
same,pIC50,BB65-RCC,< 5.60
same,pIC50,BV-173,< 5.60
same,pIC50,Becker,< 5.60
same,pIC50,TE-8,< 5.60
same,pIC50,TGBC1TKB,< 5.60
